Measurements: patent US20170007663A1, “METHODS AND COMPOSITIONS FOR TREATING AND […] DYSFUNCTION” (CORNELL UNIVERSITY, priority 2013, published 2017)
Non-standard residues stand in square brackets, D forms with d. No end group written: not given here.

Assays:
[1] = tested on: several mammalian cell types; conditions: cited from earlier work
[2] = tested on: cerebral metabolic rate of oxygen (CMRO); assay: Burst suppression model (Ching et al.) for cerebral metabolic rate of oxygen
Description: A burst suppression model, as described in Ching et al., PNAS, 109(8): 3095-3100, (2012), will be used to determine the effect of D-Arg-2′,6′-Dmt-Lys-Phe-NH2 on CMRO. A range of 10^−9 to 10^−6 molar concentration of D-Arg-2′,6′-Dmt-Lys-Phe-NH2 will be assayed and compared to untreated and control peptide assays.

mu-opioid receptor = mu-opioid receptor (Homo sapiens, UniProt P35372); conditions: stated without a described test; cited from earlier work
Sequence of mu-opioid receptor (P35372 whole entry, species assumed): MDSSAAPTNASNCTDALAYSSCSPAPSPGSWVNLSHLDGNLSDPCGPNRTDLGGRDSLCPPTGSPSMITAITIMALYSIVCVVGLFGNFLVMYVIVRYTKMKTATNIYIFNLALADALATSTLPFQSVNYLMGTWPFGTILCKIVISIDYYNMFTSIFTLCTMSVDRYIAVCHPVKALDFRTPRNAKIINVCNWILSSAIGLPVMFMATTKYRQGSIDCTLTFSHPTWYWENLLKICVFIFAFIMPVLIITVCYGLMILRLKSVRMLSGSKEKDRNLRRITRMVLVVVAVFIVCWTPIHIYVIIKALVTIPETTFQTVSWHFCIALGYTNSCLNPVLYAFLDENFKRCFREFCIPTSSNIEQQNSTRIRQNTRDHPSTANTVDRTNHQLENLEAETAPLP

| Substance | penetration of the plasma membrane [1] | CMRO ([2]; 10^−9 to 10^−6 molar, compared to untreated and control peptide assays) | cerebral metabolism / neuronal cellular and network function ([2]; burst suppression model, FIG. 1) | mu-opioid receptor agonist activity (mu-opioid receptor) |
| --- | --- | --- | --- | --- |
| 2′,6′-Dmt-D-Arg-Phe-Lys-NH2 | readily penetrates the plasma membrane of several mammalian cell types in an energy-independent manner | – | – | – |
| D-Arg-2′,6′-Dmt-Lys-Phe-NH2 | – | increase in CMRO | increase in cerebral metabolism and/or a restoration of neuronal cellular and network function | does not have mu-opioid receptor agonist activity |
| F[dR]FK-NH2 | – | – | – | does not have mu-opioid receptor agonist activity |
| Tyr-D-Arg-Phe-Lys-NH2 | – | – | – | has mu-opioid receptor agonist activity |
